Measured values taken from patent publication US20070105826A1, “Novel fusidic acid derivatives” (LEO PHARMA A/S, priority 2003, published 2007).
Converted amounts (≈) assume the structure as drawn.

Columns and labels:
Test in all cases: MIC (Minimum Inhibitory Concentration) determination, broth dilution in 96-well plates
Type in all cases: cell-based
[1] = system: Staphylococcus aureus CJ12; conditions: LB broth, aerobic, 37° C., 24 h, cells at t = 0 ˜10^6/ml; for MIC: Staphylococcus aureus, CJ12, read-out: Antibacterial activity, MIC, Staph. aureus CJ12
Experimental: (§1) The fusidic acid analogues of the invention and the reference compounds 201 (fusidic acid (as the sodium salt)), 207, 205 203 and 206 (see notes to Table A) were stored in powder form at +4° C. When used in assays, they were dissolved in 95% EtOH (3.84 mg/ml) and kept for a maximum of 1 month at −20° C. before being discarded. [table] LB media (per 1000 ml ddH2O: 10 g Bacto-tryptone, 5 g yeast extract, 10 g NaCl). THB (Todd-Hewitt Broth) media, SIGMA, product number: T1438 (per 1000 ml ddH2O: 50 g Beef-Heart Infusion, 20 g Casein peptone, 2 g Dextrose, 2 g NaHCO3, 2.5 g NaCl, 0.4 g Na2HPO4). Plates were made using an agar concentration of 1.5%. Blood-agar plates contained an additional 5% (v/v) defibrinated horse blood purchased from SLU (Swedish Agricultural University), Uppsala. MIC tests on the compounds were done in 96-well micro titer plates (Thermo Labsystems). 4×10^5 bacteria were inoculated in 0.4 ml growth media (S. aureus, LB broth, S. pyogenes—TH broth) containing serial dilutions of the compound to be tested starting from 128 μg/ml (dilution factor 2, e.g. 128 μg/ml, 64 μg/ml, . . . , 0.016 μg/ml). The criterion for sensitivity is no visible growth after a 24 h, aerobic incubation at 37° C. Each compound was tested at least twice, and fusidic acid was always included as an experimental control. [table]

[2] = system: Streptococcus pyogenes DA7121; conditions: TH broth, aerobic, 37° C., 24 h, cells at t = 0 ˜10^6/ml; for MIC: Streptococcus pyogenes, DA7121, read-out: Antibacterial activity, MIC, Strep. pyogenes DA7121
Experimental: as §1

[3] = system: Staphylococcus aureus FDA486; conditions: LB broth, aerobic, 37° C., 24 h, cells at t = 0 ˜10^6/ml; for MIC: Staphylococcus aureus, FDA486, read-out: Antibacterial activity, MIC, Staph. aureus FDA486
Experimental: as §1

[4] = system: Streptococcus pyogenes DA7864; conditions: TH broth, aerobic, 37° C., 24 h, cells at t = 0 ˜10^6/ml; for MIC: Streptococcus pyogenes, DA7864, read-out: Antibacterial activity, MIC, Strep. pyogenes DA7864
Experimental: as §1

[5] = system: Staphylococcus aureus 8325-4; conditions: LB broth, aerobic, 37° C., 24 h, cells at t = 0 ˜10^6/ml
Experimental: as §1

CC(C)=C(Br)CC/C(C(=O)O)=C1\C2C[C@@H](O)C3[C@@]4(C)CC[C@@H](O)[C@@H](C)C4CC[C@]3(C)[C@@]2(C)C[C@@H]1[S+]([O-])C(C)C (stereo partly drawn) [Compound 113, 24-bromo-16-deacetoxy-16β-isopropylsulfinyl-fusidic acid]
MIC [1]: 0.11 µg/mL (≈ 0.175 µM)
MIC [2]: 0.4 µg/mL (≈ 0.637 µM)
MIC [3]: 0.22 µg/mL (≈ 0.35 µM)
MIC [4]: 0.4 µg/mL (≈ 0.637 µM)

CC(=O)O[C@H]1C[C@@]2(C)[C@@H](C[C@@H](O)[C@H]3[C@@]4(C)CC[C@@H](O)[C@@H](C)[C@@H]4CC[C@@]32C)[C@]12C[C@]2(CCC=C(C)C)C(=O)O [Ref. comp. 206, 17S,20S-Methylene-fusidic acid]
Antibacterial activity, MIC, Staph. aureus CJ12 [1]: 0.06 µg/mL
Antibacterial activity, MIC, Strep. pyogenes DA7121 [2]: >32 µg/mL
Antibacterial activity, MIC, Staph. aureus FDA486 [3]: 0.22 µg/mL
Antibacterial activity, MIC, Staph. aureus 8325-4 [5]: 0.11 µg/mL
Antibacterial activity, MIC, Strep. pyogenes DA7864 [4]: 28 µg/mL

24-bromo-17S,20S-methylene-fusidic acid [Compound 122]
Antibacterial activity, MIC, Staph. aureus CJ12 [1]: 0.22 µg/mL
Antibacterial activity, MIC, Strep. pyogenes DA7121 [2]: 7 µg/mL
Antibacterial activity, MIC, Staph. aureus FDA486 [3]: 0.88 µg/mL
Antibacterial activity, MIC, Staph. aureus 8325-4 [5]: 0.88 µg/mL
Antibacterial activity, MIC, Strep. pyogenes DA7864 [4]: 7 µg/mL

CCO[C@H]1C[C@@]2(C)[C@@H](C[C@@H](O)[C@H]3[C@@]4(C)CC[C@@H](O)[C@@H](C)[C@@H]4CC[C@@]32C)/C1=C(\CCC=C(C)C)C(=O)O [Ref. comp. 203, 16-Deacetoxy-16β-ethoxy-fusidic acid]
Antibacterial activity, MIC, Staph. aureus CJ12 [1]: 0.06 µg/mL
Antibacterial activity, MIC, Strep. pyogenes DA7121 [2]: 7 µg/mL
Antibacterial activity, MIC, Staph. aureus FDA486 [3]: 0.22 µg/mL
Antibacterial activity, MIC, Staph. aureus 8325-4 [5]: 0.22 µg/mL
Antibacterial activity, MIC, Strep. pyogenes DA7864 [4]: 14 µg/mL

CC(=O)O[C@H]1C[C@@]2(C)[C@@H](C[C@@H](O)[C@H]3[C@@]4(C)CC[C@@H](O)[C@@H](C)[C@@H]4CC[C@@]32C)/C1=C(\CCC=C(C)C)C(=O)O [Ref. comp. 201, Fusidic acid]
MIC [1]: 0.03 µg/mL (≈ 0.0581 µM)
MIC [2]: 3.5 µg/mL (≈ 6.77 µM)
MIC [3]: 0.11 µg/mL (≈ 0.213 µM)
MIC ([5]; Staphylococcus aureus, 83254, read-out: Antibacterial activity, MIC, Staph. aureus 8325-4): 0.03 µg/mL (≈ 0.0581 µM)
MIC [4]: 3.5 µg/mL (≈ 6.77 µM)

24-bromo-17S,20S-dihydrofusidic acid [Compound 115]
Antibacterial activity, MIC, Staph. aureus CJ12 [1]: 0.06 µg/mL
Antibacterial activity, MIC, Strep. pyogenes DA7121 [2]: 1.8 µg/mL
Antibacterial activity, MIC, Staph. aureus FDA486 [3]: 0.88 µg/mL
Antibacterial activity, MIC, Staph. aureus 8325-4 [5]: 0.11 µg/mL
Antibacterial activity, MIC, Strep. pyogenes DA7864 [4]: 1.8 µg/mL

CC(=O)OC1CC2(C)C(CC(O)C3C4(C)CCC(O)C(C)C4CCC32C)C1C(CCC=C(C)C)C(=O)O (stereo not drawn) [Ref. comp. 205, 17S,20S-Dihydrofusidic acid]
Antibacterial activity, MIC, Staph. aureus CJ12 [1]: 0.06 µg/mL
Antibacterial activity, MIC, Strep. pyogenes DA7121 [2]: 14 µg/mL
Antibacterial activity, MIC, Staph. aureus FDA486 [3]: 0.44 µg/mL
Antibacterial activity, MIC, Staph. aureus 8325-4 [5]: 0.11 µg/mL
Antibacterial activity, MIC, Strep. pyogenes DA7864 [4]: 28 µg/mL

24-bromo-16-deacetoxy-16β-ethoxy-fusidic acid [Compound 116]
Antibacterial activity, MIC, Staph. aureus CJ12 [1]: 0.06 µg/mL
Antibacterial activity, MIC, Strep. pyogenes DA7121 [2]: 7 µg/mL
Antibacterial activity, MIC, Staph. aureus FDA486 [3]: 0.44 µg/mL
Antibacterial activity, MIC, Staph. aureus 8325-4 [5]: 0.11 µg/mL
Antibacterial activity, MIC, Strep. pyogenes DA7864 [4]: 7 µg/mL

CC(=O)O[C@H]1C[C@@]2(C)[C@@H](C[C@@H](O)[C@H]3[C@@]4(C)CC[C@@H](O)[C@@H](C)[C@@H]4CC[C@@]32C)/C1=C(\CCC(Br)=C(C)C)C(=O)O [Compound 108, 24-bromo-fusidic acid]
Antibacterial activity, MIC, Staph. aureus CJ12 [1]: 0.03 µg/mL
Antibacterial activity, MIC, Strep. pyogenes DA7121 [2]: 0.8 µg/mL
Antibacterial activity, MIC, Staph. aureus FDA486 [3]: 0.05 µg/mL
Antibacterial activity, MIC, Strep. pyogenes DA7864 [4]: 0.8 µg/mL

CC(C)=CCC/C(C(=O)O)=C1/[C@@H]([S+]([O-])C(C)C)C[C@@]2(C)[C@H]1C[C@@H](O)[C@H]1[C@@]3(C)CC[C@@H](O)[C@@H](C)[C@@H]3CC[C@@]12C (stereo partly drawn) [Ref. comp. 207, 16-Deacetoxy-16β-isopropylsulfinyl-fusidic acid]
Antibacterial activity, MIC, Staph. aureus CJ12 [1]: 0.05 µg/mL
Antibacterial activity, MIC, Strep. pyogenes DA7121 [2]: 1.6 µg/mL
Antibacterial activity, MIC, Staph. aureus FDA486 [3]: 0.22 µg/mL
Antibacterial activity, MIC, Strep. pyogenes DA7864 [4]: 1.6 µg/mL
